Non-standard residues stand in square brackets, D forms with d. Residues, ends and D or L forms follow the SMILES beside them. *: point of attachment. Sta = CC(C)C[C@H](N)[C@@H](O)CC(=O)O; Isovaleryl = CC(C)CC(=O)*
Key:
aspartic proteases = assay: IgG degradation by pepstatin A affinity purified aspartic proteases; assay type: biochemical, Trichoderma reesei; conditions: 10 μM pepstatin A; pH 5.5, 37°C, 20 hours
Procedure: The T. reesei fed batch fermentation supernatant (15 ml) was used to batch bind proteases to the resin in 35 ml of buffer containing 50 mM sodium acetate, 0.2 M NaCl, pH 3.0. The column was washed with the same binding buffer and bound protein was removed with elution buffer (50 mM Tris-HCL, 1 M NaCl, pH 8.5). Fractions of 0.5 ml were collected. In total 42 μg of protease was purified. The peak fraction contained 0.04 μg/μl protein. 30 μl of each fraction was mixed with 6 μl of Laemmli sample buffer containing β-mercaptoethanol. The samples were heated at 95° C. for 5 minutes before being loaded into a 4-15% PAGE gel (BioRad mini-protean TGX precast gel) along with a broad range prestained molecular weight marker (BioRad). The gel was run in SDS PAGE running buffer for 30 minutes at 100 V, and then stained with GelCode (Thermo Scientific) blue stain.
Protein (0.8 μg) from the peak fraction (F3) was then incubated with IgG (50 μg ml) in sodium citrate buffer (50 mM, pH 5.5) at 37° C. for 20 hours (FIG. 2). The protein was incubated either in the presence or absence of 10 μM pepstatin A. The antibody mixture was combined with Laemmli sample buffer and heated at 95° C. for 5 minutes. These samples were then loaded into a 4-15% PAGE gel (BioRad mini-protean TGX precast gel) along with a broad range prestained molecular weight marker (BioRad). […]

[1] = tested on: rituximab antibody producing strain; assay: Treatment of T. reesei rituximab cultures with inhibitors; assay type: cell-based, Trichoderma reesei; conditions: small shake flasks, inhibitors added daily day 2-5
Procedure: The effectiveness of the inhibitors was also tested with the rituximab antibody producing strain, which contains a VALEKR linker sequence and the pep1 deletion. This strain was grown in triplicate, in small flasks both in presence or absence of chymostatin, SBTI, or pepstatin A. The small shake flasks contained 50 ml of TrMM plus lactose (40 g/l), spent grain extract (20 g/l), and buffer with 100 mM PIPPS at pH 5.5. The SBTI inhibitor was added to the culture at final concentrations of either 100 μg/ml or 500 μg/ml. Chymostatin was used at 100 μM, and pepstatin A was used at 10 μM. Each of the three inhibitors was added to the cultures daily on day 2, 3, 4, and 5.
Growth of the cultures was followed daily by pH from day 2 until day 7. […] In the PIPPS buffered cultures, the pH decreased from an initial pH of 5.5 down to a pH of 4.8 after day 6. With chymostatin and pepstatin A the cultures were monitored up to day 7. On day 7 the average pH for the control bottles was 4.6, while the average pH for chymostatin treated cultures was 4.9, and the average pH of pepstatin A treated cultures was 5.0.
Culture supernatant samples (30 μl) were also collected on days 3, 4, and 5 for analysis of antibody production. The analysis was performed by immunoblots using an anti-IgG heavy chain antibody AP conjugate (Sigma #A3188) and an anti-light chain antibody AP conjugate (Sigma #A3812). Each antibody was diluted 1:30,000 in TBST. The full length rituximab heavy chain is about 51 kD, the rituximab light chain CHBI fusion is about 100 kD, and the free rituximab light chain is about 28 kD.

## CC(C)CC(=O)N[C@H](C(=O)N[C@H](C(=O)N[C@@H](CC(C)C)[C@@H](O)CC(=O)N[C@@H](C)C(=O)N[C@@H](CC(C)C)[C@@H](O)CC(=O)O)C(C)C)C(C)C [pepstatin A] (Isovaleryl-VV[Sta]A[Sta]-OH)
Aspartic proteases
  IgG degradation by aspartic proteases: inhibited
[1]
  effect on culture growth (followed by pH): small reduction in growth
